Laboratory results as given in patent US6479454B1, “Antimicrobial compositions and methods containing hydrogen peroxide and octyl amine oxide” (Ecolab Inc., priority 2000, dated 2002).

Columns and labels:
[1] = tested on: Pseudomonas aeruginosa; test: Minimal Bactericidal Concentration (MBC), Ecolab S.O.P. Method MS009 (A.O.A.C. Method 960.09); type: cell-based
Procedure: The term Minimal Bactericidal Concentration is used in the present invention to mean a 5 log reduction in microbe count.
An experiment was conducted to determine the Minimal Bactericidal Concentration (MBC) of octyldimethylamine oxide alone, hydrogen peroxide alone and two mixtures of octyldimethylamine oxide with hydrogen peroxide against Pseudomonas aeruginosa. Experiments were conducted using standard bacteriological techniques, specifically Ecolab Microbiological Services S.O.P. Method MS009 (reference to A.O.A.C. Method 960.09). […] The 50%/50% relative composition of amine oxide:hydrogen peroxide has a pH of 7.4 and an oxidation potential of 250 mV when diluted to 1.7% total oxidizer.

[2] = tested on: Salmonella javiana; test: Antimicrobial activity (log reduction) on a tomato surface; type: cell-based
Procedure: A second experiment was conducted to determine the synergistic effects of mixing an amine oxide, peracetic acid and hydrogen peroxide. Combinations of peracetic acid and hydrogen peroxide were measured in the presence and absence of a tetradecyl-dimethylamine oxide for antimicrobial activity against Salmonella javiana. Testing was performed on a tomato surface.

OO [0/100, hydrogen peroxide]
MBC ppm peroxide ([1]; MBC = 5 log reduction in microbe count, expressed as hydrogen peroxide concentration): >2,000 ppm

CCCCCCCC[N+](C)(C)[O-] [100/0, octyldimethylamine oxide]
concentration required to obtain MBC ([1]; MBC = 5 log reduction): greater than 2000 parts per million
MBC ([1]; Pseudomonas aeruginosa, MBC = 5 log reduction in microbe count, expressed as octyldimethylamine oxide concentration, read-out: MBC ppm amine oxide): > 2000 µg/mL

CCCCCCCCCCCCCC[N+](C)(C)[O-] [Amine Oxide Alone, tetradecyl-dimethylamine oxide]
Log Reduction (S. Javiana) ([2]; ppm of each component as given in the table row): <0.2
antimicrobial activity against S. javiana (in words) ([2]; text summary of Table II): fairly ineffective
